Experimental data reported in patent US7671068B2, “N-(alkoxyalkyl) carbamoyl-substituted 6-phenyl-benzonaphthyridine derivatives and their use as PDE ¾ inhibitors” (NYCOMED GmbH, priority 2004, dated 2010).

Legend:
Format in all cases: biochemical
PDE4B2 = molecular target: T1, PDE4B2 (Homo sapiens, UniProt Q07343); experiment: PDE4B2 inhibition, Method B (modified SPA test, recombinant enzyme); details: 0.5 μM cAMP, read-out: PDE4 [−log IC50, mol/l] (converted)
T1 construct: made in house; host or cells: baculovirus, SF21 insect cells (virus made in SF9); 1000xg supernatant of the homogenate
Experimental: The PDE4B2 (GB no. M97515) was a gift of Prof. M. Conti (Stanford University, USA). It was amplified from the original plasmid (pCMV5) via PCR with primers Rb9 (5′-[…]-3′) and Rb10 (5′-[…]-3′) and cloned into the pCR-Bac vector (Invitrogen, Groningen, NL).
(§1) The recombinant baculovirus was prepared by means of homologous recombination in SF9 insect cells. The expression plasmids were cotransfected with Bac-N-Blue (Invitrogen, Groningen, NL) or Baculo-Gold DNA (Pharmingen, Hamburg) using a standard protocol (Pharmingen, Hamburg). Wt virus-free recombinant virus supernatants were selected using plaque assay methods. After that, high-titre virus supernatants were prepared by amplifying 3 times. PDEs were expressed in SF21 cells by infecting 2×10^6 cells/ml with an MOI (multiplicity of infection) between 1 and 10 in serum-free SF900 medium (Life Technologies, Paisley, UK). The cells were cultured at 28° C. for 48-72 hours, after which they were pelleted for 5-10 min at 1000 g and 4° C.
(§2) The SF21 insect cells were resuspended, at a concentration of approx. 10^7 cells/ml, in ice-cold (4° C.) homogenization buffer (20 mM Tris, pH 8.2, containing the following additions: 140 mM NaCl, 3.8 mM KCl, 1 mM EGTA, 1 mM MgCl2, 10 mM β-mercaptoethanol, 2 mM benzamidine, 0.4 mM Pefablock, 10 μM leupeptin, 10 μM pepstatin A, 5 μM trypsin inhibitor) and disrupted by ultrasonication. The homogenate was then centrifuged for 10 min at 1000×g and the supernatant was stored at −80° C. until subsequent use (see below). The protein content was determined by the Bradford method (BioRad, Munich) using BSA as the standard.
PDE3A1 and PDE4B2 activities were inhibited by the said compounds in a modified SPA (scintillation proximity assay) test, supplied by Amersham Biosciences (see procedural instructions “phosphodiesterase [3H]cAMP SPA enzyme assay, code TRKQ 7090”), carried out in 96-well microtitre plates (MTP's). The test volume is 100 μl and contains 20 mM Tris buffer (pH 7.4), 0.1 mg of BSA (bovine serum albumin)/ml, 5 mM Mg^2+, 0.5 μM cAMP (including about 50,000 cpm of [3H]cAMP), 1 μl of the respective substance dilution in DMSO and sufficient recombinant PDE (1000×g supernatant, see above) to ensure that 10-20% of the cAMP is converted under the said experimental conditions. […] After a preincubation of 5 min at 37° C., the reaction is started by adding the substrate (cAMP) and the assays are incubated for a further 15 min; after that, they are stopped by adding SPA beads (50 μl). In accordance with the manufacturer's instructions, the SPA beads had previously been resuspended in water, but were then diluted 1:3 (v/v) in water; the diluted solution also contains 3 mM IBMX to ensure a complete PDE activity stop. After the beads have been sedimented (>30 min), the MTP's are analyzed in commercially available luminescence detection devices. The corresponding IC50 values of the compounds for the inhibition of PDE activities are determined from the concentration-effect curves by means of non-linear regression.
(§3) The inhibitory values of the compounds 1-16 and 22-24 have been determined according to Method A. The inhibitory values of the compounds 17-21 have been determined according to Method B.

PDE3A1 = molecular target: T2, PDE3A1 (Homo sapiens, UniProt Q14432); experiment: PDE3A1 inhibition, Method B (modified SPA test, recombinant enzyme); details: 0.5 μM cAMP, read-out: PDE3 [−log IC50, mol/l] (converted)
T2 construct: The whole ORF was subcloned into pBacPak9 (Clontech, Palo Alto) using EcoRI; made in house; host or cells: baculovirus (pBacPak9), SF21 insect cells (virus made in SF9); 1000xg supernatant of the homogenate
From the text: The cDNA for PDE3A1 (GB no. U36798) was isolated in 2 steps using PCR. A 3′ terminal cDNA fragment of PDE3A1 was amplified from fat cells cDNA (Clontech, Palo Alto) using primers OZ 458 (5′-[…]-3′) and OZ 457 (5′-[…]-3′). The 5′ terminal cDNA fragment of PDE3A1 was amplified from Placenta cDNA (Clontech, Palo Alto) using primers OZ 455 (5′-[…]-3′) and OZ 456 (5′-[…]-3′). The PCR products were cloned into pCR2.1-Topo (Invitrogen, Groningen, NL) under standard conditions (the manufacturer's instructions). The 3′ fragment was cut out with HindII and cloned into the HindII site of the construct carrying the 5′ fragment. The whole ORF was subcloned into pBacPak9 (Clontech, Palo Alto) using EcoRI. Aminoacid 12 is Aspartic Acid like in sequence GB no. AJ005036, aa 69 and aa 110 are respective Serine and Glycine like in both sequences GB no. AJ005036 and GB no. M91667.
as §1, §2
PDE3A1 and PDE4B2 activities were inhibited by the said compounds in a modified SPA (scintillation proximity assay) test, supplied by Amersham Biosciences (see procedural instructions “phosphodiesterase [3H]cAMP SPA enzyme assay, code TRKQ 7090”), carried out in 96-well microtitre plates (MTP's). The test volume is 100 μl and contains 20 mM Tris buffer (pH 7.4), 0.1 mg of BSA (bovine serum albumin)/ml, 5 mM Mg^2+, 0.5 μM cAMP (including about 50,000 cpm of [3H]cAMP), 1 μl of the respective substance dilution in DMSO and sufficient recombinant PDE (1000×g supernatant, see above) to ensure that 10-20% of the cAMP is converted under the said experimental conditions. […] After the beads have been sedimented (>30 min), the MTP's are analyzed in commercially available luminescence detection devices. The corresponding IC50 values of the compounds for the inhibition of PDE activities are determined from the concentration-effect curves by means of non-linear regression.
as §3

[1] = test system: PDE4 (cAMP-specific) in the cytosol of human polymorphonuclear leukocytes (PMNL); experiment: PDE4 inhibition, Method A (radioactive PDE assay after Thompson et al.); details: cAMP substrate, motapizone 1 μM
Experimental: (§4) The PDE activity was determined according to Thompson et al. (Adv Cycl Nucl Res 10: 69-92, 1979) with some modifications (Bauer and Schwabe, Naunyn-Schmiedeberg's Arch Pharmacol 311: 193-198, 1980). The test samples contained 20 mM Tris (pH 7.4), 5 mM MgCl2, 0.5 μM CAMP or cGMP, [^3H]cAMP or [^3H]cGMP (about 30 000 cpm/sample), the PDE isoenzyme-specific additives described in greater detail below, the indicated concentrations of inhibitor and an aliquot of the enzyme solution in a total sample volume of 200 μl. Dilution series of the compounds according to the invention were prepared in DMSO and further diluted in the samples [1:100 (v/v)], to give the desired end concentration of the inhibitors at a DMSO concentration of 1% (v/v), which for its part has only a minute effect on PDE activity.
(§5) After preincubation at 37° C. for 5 minutes, the reaction was started by addition of the substrate (CAMP or cGMP). The samples were incubated at 37° C. for a further 15 min. The reaction was terminated by addition of 50 μl 0.2 N HCl. After cooling on ice for 10 minutes and addition of 25 μg 5′-nucleotidase (snake venom from Crotalus atrox), the mixture was again incubated at 37° C. for 10 min and the samples were then applied to QAE Sephadex A-25 columns (sample volume 1 ml). The columns were eluted with 2 ml of 30 mM ammonium formate (pH 6.0). The radioactivity of the eluate was measured and corrected by the corresponding blank values (measured in the presence of denatured protein); the blank values were less than 5% of the total radioactivity. In no case did the proportion of hydrolyzed nucleotide exceed 30% of the original substrate concentration.
PDE4 (cAMP-specific) was investigated in the cytosol of human polymorphonuclear leukocytes (PMNL) [isolated from leukocyte concentrates, see Schudt et al., Arch Pharmacol 1991: 344, 682-690] using cAMP as substrate. The PDE3 inhibitor motapizone (1 μM) was used to suppress the PDE3 activity emanating from contaminated platelets.
(§6) The IC50 values were determined from the concentration-inhibition curves by nonlinear regression.
as §3

[2] = molecular target: T3, PDE3 (cGMP-inhibited) in homogenates of human platelets (Homo sapiens, UniProt Q14432); experiment: PDE3 inhibition, Method A (radioactive PDE assay after Thompson et al.); details: read-out: PDE3 [−log IC50, mol/l] (converted)
T3 construct: investigated in homogenates of human platelets; from tissue; host or cells: homogenates of human platelets
Experimental: as §4, §5
PDE3 (cGMP-inhibited) was investigated in homogenates of human platelets (see Schudt et al., Biochem Pharmacol 1991: 42, 153-162) using CAMP or cGMP as substrate.
as §6, §3

T2 sequence (Q14432 whole entry): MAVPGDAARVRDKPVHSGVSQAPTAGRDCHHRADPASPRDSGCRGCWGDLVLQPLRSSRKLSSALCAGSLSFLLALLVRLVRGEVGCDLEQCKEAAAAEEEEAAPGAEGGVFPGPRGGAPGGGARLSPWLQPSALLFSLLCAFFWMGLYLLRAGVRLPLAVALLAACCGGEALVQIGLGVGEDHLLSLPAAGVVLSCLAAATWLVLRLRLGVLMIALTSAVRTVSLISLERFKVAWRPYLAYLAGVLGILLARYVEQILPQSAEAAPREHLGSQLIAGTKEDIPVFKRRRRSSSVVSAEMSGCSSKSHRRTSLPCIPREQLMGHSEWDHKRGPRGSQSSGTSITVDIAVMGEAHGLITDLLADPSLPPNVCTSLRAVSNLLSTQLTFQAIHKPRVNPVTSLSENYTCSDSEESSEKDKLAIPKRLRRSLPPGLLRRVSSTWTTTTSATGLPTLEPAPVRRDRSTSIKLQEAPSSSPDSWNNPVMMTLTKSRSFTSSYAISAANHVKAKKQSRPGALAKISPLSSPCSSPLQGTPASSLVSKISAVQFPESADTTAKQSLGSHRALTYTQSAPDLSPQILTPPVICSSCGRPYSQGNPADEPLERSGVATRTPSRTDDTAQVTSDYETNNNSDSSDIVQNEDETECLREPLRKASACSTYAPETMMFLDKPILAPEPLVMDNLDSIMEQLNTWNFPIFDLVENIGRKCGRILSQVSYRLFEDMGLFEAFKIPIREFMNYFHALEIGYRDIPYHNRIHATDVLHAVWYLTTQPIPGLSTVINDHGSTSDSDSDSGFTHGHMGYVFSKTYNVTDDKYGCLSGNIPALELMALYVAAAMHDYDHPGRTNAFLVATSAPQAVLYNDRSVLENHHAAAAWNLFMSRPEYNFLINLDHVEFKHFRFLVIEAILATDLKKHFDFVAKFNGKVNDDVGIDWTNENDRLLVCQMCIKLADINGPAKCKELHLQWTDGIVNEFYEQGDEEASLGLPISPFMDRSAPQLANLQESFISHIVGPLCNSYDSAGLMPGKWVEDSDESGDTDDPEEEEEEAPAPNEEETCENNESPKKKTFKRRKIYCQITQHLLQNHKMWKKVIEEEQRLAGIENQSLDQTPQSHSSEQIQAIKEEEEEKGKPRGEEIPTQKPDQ
T1 sequence (Q07343 1-564 isoform Q07343-2): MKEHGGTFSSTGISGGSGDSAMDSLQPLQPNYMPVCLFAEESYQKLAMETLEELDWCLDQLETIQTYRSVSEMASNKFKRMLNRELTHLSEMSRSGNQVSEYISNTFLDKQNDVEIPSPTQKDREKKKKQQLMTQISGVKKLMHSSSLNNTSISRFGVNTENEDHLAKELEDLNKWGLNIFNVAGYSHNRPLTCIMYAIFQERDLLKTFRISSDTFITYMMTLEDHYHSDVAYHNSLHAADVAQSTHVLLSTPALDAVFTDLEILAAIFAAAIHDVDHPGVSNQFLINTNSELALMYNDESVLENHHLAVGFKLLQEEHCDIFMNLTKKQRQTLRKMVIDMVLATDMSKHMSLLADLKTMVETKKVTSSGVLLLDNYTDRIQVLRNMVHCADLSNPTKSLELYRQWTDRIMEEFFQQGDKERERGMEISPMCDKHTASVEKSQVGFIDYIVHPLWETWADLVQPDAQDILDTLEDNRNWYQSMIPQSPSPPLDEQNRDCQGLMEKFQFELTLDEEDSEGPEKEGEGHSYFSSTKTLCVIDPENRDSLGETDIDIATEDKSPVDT
T3 sequence (Q14432 whole entry): as the sequence (Q14432 whole entry) above

Compound: CCOc1cc2c(cc1OC)C(c1ccc(C(=O)N(C(C)C)[C@@H](C)COCc3ccc(OC)cc3)cc1)=N[C@@H]1CCN(C)C[C@H]21 [Compound 20, 4-((4aR,10bS)-9-Ethoxy-8-methoxy-2-methyl-1,2,3,4,4a,10b-hexahydro-benzo [c][1,6]naphthyridin-6-yl)-N-isopropyl-N—[(S)-2-(4-methoxy-benzyloxy)-1-methyl-ethyl]-benzamide]
- IC50 (PDE4B2): 0.000316 µM
- IC50 (PDE3A1): 0.0398 µM

Compound: CCOc1cc2c(cc1OC)C(c1ccc(C(=O)N(C(C)C)[C@@H](C)COCc3ccc(C#N)cc3)cc1)=N[C@@H]1CCN(C)C[C@H]21 [Compound 19, N—[(S)-2-(4-Cyano-benzyloxy)-1-methyl-ethyl]-4-((4aR,10bS)-9-ethoxy-8-methoxy-2-methyl-1,2,3,4,4a,10b-hexahydro-benzo[c][1,6]naphthyridin-6-yl)-N-isopropyl-benzamide]
- IC50 (PDE4B2): 0.000398 µM
- IC50 (PDE3A1): 0.0251 µM

Compound: CCOc1cc2c(cc1OC)C(c1ccc(C(=O)N(C(C)C)[C@@H](C)COCCCc3ccccc3)cc1)=N[C@@H]1CCN(C)C[C@H]21 [Compound 21, 4-((4aR,10bS)-9-Ethoxy-8-methoxy-2-methyl-1,2,3,4,4a,10b-hexahydro-benzo [c][1,6]naphthyridin-6-yl)-N-isopropyl-N—[(S)-1-methyl-2-(3-phenyl-propoxy)-ethyl]-benzamide]
- IC50 (PDE4B2): 0.002 µM
- IC50 (PDE3A1): 0.0398 µM

Compound: CCOc1cc2c(cc1OC)C(c1ccc(C(=O)N(C(C)C)[C@@H](C)COCc3cc(OC)cc(OC)c3)cc1)=N[C@@H]1CCN(C)C[C@H]21 [Compound 17, N—[(S)-2-(3,5-Dimethoxy-benzyloxy)-1-methyl-ethyl]-4-((4aR,10bS)-9-ethoxy-8-methoxy-2-methyl-1,2,3,4,4a,10b-hexahydro-benzo[c][1,6]naphthyridin-6-yl)-N-isopropyl-benzamide]
- IC50 (PDE4B2): 0.000316 µM
- IC50 (PDE3A1): 0.0398 µM

Compound: CCOc1cc2c(cc1OC)C(c1ccc(C(=O)N(C(C)C)[C@@H](C)COCc3ccc(C(F)(F)F)cc3)cc1)=N[C@@H]1CCN(C)C[C@H]21 [Compound 18, 4-((4aR,10bS)-9-Ethoxy-8-methoxy-2-methyl-1,2,3,4,4a,10b-hexahydro-benzo [c][1,6]naphthyridin-6-yl)-N-isopropyl-N—[(S)-1-methyl-2-(4-trifluoromethyl-benzyloxy)-ethyl]-benzamide]
- IC50 (PDE4B2): 0.001 µM
- IC50 (PDE3A1): 0.0794 µM

Compound: CCOc1cc2c(cc1OC)C(c1ccc(C(=O)N(C(C)C)[C@@H](C)COCc3ccccc3)cc1)=N[C@@H]1CCN(C)C[C@H]21 [Compound 9, N—((S)-2-Benzyloxy-1-methylethyl)-4-((4aR,10bS)-9-ethoxy-8-methoxy-2-methyl-1,2,3,4,4a,10b-hexahydro-benzo[c][1,6]naphthyridin-6-yl)-N-isopropyl-benzamide]
- PDE4 [−log IC50, mol/l] [1]: 9.8 mol/l
- IC50 [2]: 0.0158 µM
